The structures appear in SMILES notation. Like-named read-outs stand apart in the source and are kept apart here.

The test system of data set [1] is patients suffering from pulmonary hypertension (PH). The data set can be described thus: Iloprost inhalation in six further patients (Example 4). Type of data set: in vivo, human. The conditions noted are these: rapid inhalation as in Example 3. As for the experimental part:
Six further patients suffering from pulmonary hypertension (PH) were treated with iloprost inhalation as in Example 3.

The conditions of data set [2]: cited from earlier work.
Data set [3] has as its system patients with pulmonary arterial hypertension. Nature of the data set: Clinical pilot study of safety and tolerability of rapidly inhaled nebulised iloprost (Example 3). Format: in vivo, human. The protocol: A clinical pilot study to evaluate the safety and tolerability of nebulised iloprost administered by inhalation according to the invention was conducted with 4 patients. Eligible were male and female patients with pulmonary arterial hypertension in the age from 18 to 70 years having a mean pulmonary arterial blood pressure (PAP) higher than 25 mm Hg, a pulmonary vascular resistance (PVR) higher than 240 dyn*s*cm^−5, a central venous pressure (CVP) higher than 3 mm Hg, and a pulmonary capillary wedge pressure (PCWP) lower than 12 mm Hg. Excluded were patients with a contraindication for cardiac catheterisation (such as coagulopathy, bleeding disorder, acute infection, severe cardiac dysrhythmia), pregnancy, systemic systolic blood pressure below 110 mm Hg, highly impaired ventricular function with cardiac index below 1.8 L/min*m^2, and known lack of pulmonary vascular reactivity. Patients were monitored by ECG, pulse oxymetry, and non-invasive blood pressure measurement. An intracardiac catheter was introduced into the distal pulmonary artery to measure PAP, CVP, PCWP, and cardiac output. Also measured were the heart rate, systemic arterial pressure (SAP), systemic vascular resistance (SVR), central arterial and venous blood gases. After the initial determination of all parameters the reactivity of the pulmonary vasculature to oxygen (2 to 4 L/min) and nitric oxide (20 ppm) was tested. Subsequently, patients inhaled a single dose of 2.5 μg of nebulised iloprost in two consecutive breaths, using the same inhalation system and iloprost composition as described in Example 1. Haemodynamics parameters and clinical condition of the patients were assessed before and up to 30 minutes after inhalation. In the absence of adverse effects, a second inhalation maneuver with 4 consecutive breaths corresponding to a dose 5 μg iloprost was performed, again followed by an observation period of at least 30 minutes.

For data set [4] the following is noted: 2.8 μg in 2 minutes, ultrasonic nebuliser; cited from earlier work.
Where [5] appears, read: 2.5 μg and 5 μg rapid inhalation.

Regarding `CC#CCC(C)[C@H](O)/C=C/[C@@H]1[C@H]2C/C(=C/CCCC(=O)O)C[C@H]2C[C@H]1O` (stereo partly drawn) [Iloprost, 5-{(E)-(1S,5S,6R,7R)-7-hydroxy-6[(E)-(3S,4RS)-3-hydroxy-4-methyl-1-octen-6-inyl]-bi-cyclo[3.3.0]octan-3-ylidene}pentanoic acid], the adverse effects entry in data set [1] was “no adverse effects were observed other than the SAP and SVR changes which were mild”. The pulmonary vascular effects entry in data set [1] (PAH, iPAH, portopulmonary, CTEPH) is “very comparable to those found in Example 3”. Also, the solubility entry is given as “sparingly soluble” in data set [2] (aqueous buffer pH 9); “very slightly soluble” in data set [2] (distilled water and aqueous buffer at pH 3 and pH 5); “soluble” in data set [2] (methanol, ethanol, ethyl acetate, acetone and aqueous buffer at pH 7). In addition, in data set [2], the aqueous solubility result is reported as “rather poor”. For the same compound, in data set [3] (setting [5]), the “systemic side effects (SAP and SVR changes) versus slow inhalation of iloprost” value is “similar”. The “therapeutic pulmonary vascular effects (PAP and PVR changes) versus slow inhalation of iloprost” value in data set [3] (setting [5]) is recorded as “comparable to those observed after conventional iloprost treatment”. The “tolerability of the treatment” value in data set [3] (2.5 μg in two breaths, then 5 μg in 4 breaths, inhaled, 4 patients) is reported as “all patients tolerated the treatment well”. The “systemic effects of rapid inhalation (drop in blood pressure, decrease in systemic vascular resistance, flush, jaw pain)” value in data set [4] was “adverse systemic effects”.

The record behind these values is patent US9486427B2, “Administration of aerosolised iloprost” (VECTURA GMBH, priority 2012, dated 2016).
